Results reported in US4129737A, “Process for the preparation of an 8-alkyl-5-oxo-5,8-dihydro-pyrido(2,3-d)pyrimidine-6-carboxylic acid” (priority 1972, dated 1978).
Values after ≈ are worked out from the molar mass of the structure shown. Like-named read-outs stand apart in the source and are kept apart here.

Tests used:
Assay type in all cases: cell-based
Staphylococcus 209 P = assay: Minimum inhibitory concentration by agar dilution, Staphylococcus 209 P; conditions: Staphylococcus
Description: (§1) (a) Trypticase soya medium (T.S.A.), which is very suitable for culturing the majority of microorganisms; it has the following composition:
(§2) (b) Ordinarily nutrient agar (N.A.), which is less rich in nutrients, corresponds to the following formulation: […]
(§3) Table I gives the minimum inhibitory concentrations (expressed in μg/cm^3) for the various microorganisms tested on each medium.
(§4) The products were tested on three Gram positive microorganisms (1 to 3) […] and on 10 Gram negative microorganisms (4 to 13).
(§5) Table (II) gives the minimum inhibitory concentrations of the compounds of Examples XII to XVI, determined on the agar medium, N.A., and expressed in μg/cm^3.

Streptococcus = assay: Minimum inhibitory concentration by agar dilution, Streptococcus Group A
Description: as §1, §2, §3, §4, §5

B. subtilis = assay: Minimum inhibitory concentration by agar dilution, B. subtilis; conditions: Bacillus subtilis, 37° C., 18 hours, read-out: minimum inhibitory concentration (M.I.C.)
Description: as §1, §2, §3, §4, §5

Bord. bronchiseptica = assay: Minimum inhibitory concentration by agar dilution, Bord. bronchiseptica; conditions: Bordetella bronchiseptica, 37° C., 18 hours, read-out: minimum inhibitory concentration (M.I.C.)
Description: as §1, §2, §3, §4, §5

B. pyocyaneus A22 = assay: Minimum inhibitory concentration by agar dilution, B. pyocyaneus A22; conditions: Pseudomonas aeruginosa, A22, 37° C., 18 hours, read-out: minimum inhibitory concentration (M.I.C.)
Description: as §1, §2, §3, §4, §5

B. pyocyaneus TUR = assay: Minimum inhibitory concentration by agar dilution, B. pyocyaneus TUR; conditions: Pseudomonas aeruginosa, 37° C., 18 hours
Description: as §1, §2, §3, §4

Esch. Coli 95 = assay: Minimum inhibitory concentration by agar dilution, Esch. Coli 95; conditions: Escherichia coli
Description: as §1, §2, §3, §4, §5

Klebs. pneumoniae = assay: Minimum inhibitory concentration by agar dilution, Klebs. pneumoniae; conditions: Klebsiella pneumoniae, 37° C., 18 hours, read-out: minimum inhibitory concentration (M.I.C.)
Description: as §1, §2, §3, §4, §5

Salm. typhi = assay: Minimum inhibitory concentration by agar dilution, Salm. typhi; conditions: Salmonella enterica, 18 h
Description: as §1, §2, §3, §4, §5

Sh. sonnei = assay: Minimum inhibitory concentration by agar dilution, Sh. sonnei; conditions: Shigella sonnei, 37° C., 18 hours, read-out: minimum inhibitory concentration (M.I.C.)
Description: as §1, §2, §3, §4, §5

Pr. vulgaris = assay: Minimum inhibitory concentration by agar dilution, Pr. vulgaris; conditions: Proteus vulgaris
Description: as §1, §2, §3, §4, §5

Pr. mirabilis = assay: Minimum inhibitory concentration by agar dilution, Pr. mirabilis; conditions: Proteus mirabilis
Description: as §1, §2, §3, §4, §5

Pr. morganii = assay: Minimum inhibitory concentration by agar dilution, Pr. morganii; conditions: Morganella morganii
Description: as §1, §2, §3, §4, §5

[1] = test system: Gram-negative microorganisms; assay: In vitro anti-microbial activity on agar media, overall; conditions: in vitro
Description: as §4

[2] = N.A. (nutrient agar, pH 6.8), 37° C., 18 hours, Table I, read-out: minimum inhibitory concentration (M.I.C.)
[3] = T.S.A. (trypticase soya medium, pH 7.3), 37° C., 18 hours, read-out: minimum inhibitory concentration (M.I.C.)
[4] = N.A. (nutrient agar, pH 6.8), Table I
[5] = T.S.A. (trypticase soya medium, pH 7.3)
[6] = T.S.A. (trypticase soya medium, pH 7.3), read-out: minimum inhibitory concentration (M.I.C.)
[7] = pH 6.8, read-out: minimum inhibitory concentration (M.I.C.)
[8] = pH 7.3, read-out: minimum inhibitory concentration (M.I.C.)
[9] = 18 h, pH 7.3, read-out: minimum inhibitory concentration (M.I.C.)

Row | Compound | MIC (Staphylococcus 209 P; [2]) | MIC (Streptococcus; [2]) | MIC (B. subtilis; [4]) | MIC (B. subtilis; [5]) | MIC (Bord. bronchiseptica; [4]) | MIC (Bord. bronchiseptica; [5]) | MIC (B. pyocyaneus A22; [4]) | MIC (B. pyocyaneus A22; [5]) | MIC (B. pyocyaneus TUR; [4]) | MIC (B. pyocyaneus TUR; [6]) | MIC (Esch. Coli 95; [2]) | MIC (Klebs. pneumoniae; [4]) | MIC (Klebs. pneumoniae; [5]) | MIC (Salm. typhi; [7]) | MIC (Salm. typhi; [8]) | MIC (Sh. sonnei; [4]) | MIC (Sh. sonnei; [5]) | MIC (Pr. vulgaris; [3]) | MIC (Pr. mirabilis; [2]) | MIC (Pr. morganii; [2]) | further results
1 | CCn1cc(C(=O)O)c(=O)c2cnc(N3CCN(C)CC3)nc21 [Example V, 2-(4'-Methyl-piperazino)-5-oxo-8-ethyl-5,8-dihydro-pyrido(2,3-d)pyrimidine-6-carboxylic acid] | 3.1 µg/mL (≈ 9.77 µM) | 25 µg/mL (≈ 78.8 µM) | 1.6 µg/mL (≈ 5.04 µM) | 6.2 µg/mL (≈ 19.5 µM) | 50 µg/mL (≈ 158 µM) | 100 µg/mL (≈ 315 µM) | 12.5 µg/mL (≈ 39.4 µM) | 100 µg/mL (≈ 315 µM) | 50 µg/mL (≈ 158 µM) | 100 µg/mL (≈ 315 µM) | 0.8 µg/mL (≈ 2.52 µM) | 0.4 µg/mL (≈ 1.26 µM) | 6.2 µg/mL (≈ 19.5 µM) | 3.1 µg/mL (≈ 9.77 µM) | 3.1 µg/mL (≈ 9.77 µM) | 0.8 µg/mL (≈ 2.52 µM) | 1.6 µg/mL (≈ 5.04 µM) | 6.2 µg/mL (≈ 19.5 µM) | 6.2 µg/mL (≈ 19.5 µM) | 0.8 µg/mL (≈ 2.52 µM) | MIC (Staphylococcus 209 P; [3]): 100 µg/mL (≈ 315 µM); MIC (Streptococcus; [3]): 6.2 µg/mL (≈ 19.5 µM); MIC (Esch. Coli 95; [3]): 6.2 µg/mL (≈ 19.5 µM); MIC (Pr. vulgaris; [2]): 1.6 µg/mL (≈ 5.04 µM); MIC (Pr. mirabilis; [3]): 6.2 µg/mL (≈ 19.5 µM); MIC (Pr. morganii; [3]): 1.6 µg/mL (≈ 5.04 µM); activity against Gram-negative microorganisms [1]: particularly active against Gram-negative microorganisms
2 | CN1CCN(c2ncc3c(=O)c(C(=O)O)cn(C)c3n2)CC1 [Example X, 2-(4'-Methyl-piperazino)-5-oxo-8-methyl-5,8-dihydropyrido-(2,3-d)pyrimidine-6-carboxylic acid] | 50 µg/mL (≈ 165 µM) | 50 µg/mL (≈ 165 µM) | 100 µg/mL (≈ 330 µM) | > 100 µg/mL | 25 µg/mL (≈ 82.4 µM) | 100 µg/mL (≈ 330 µM) | 50 µg/mL (≈ 165 µM) | > 100 µg/mL | 50 µg/mL (≈ 165 µM) | > 100 µg/mL | 1.6 µg/mL (≈ 5.27 µM) | 6.2 µg/mL (≈ 20.4 µM) | 6.2 µg/mL (≈ 20.4 µM) | 3.1 µg/mL (≈ 10.2 µM) | 12.5 µg/mL (≈ 41.2 µM) | 12.5 µg/mL (≈ 41.2 µM) | 3.1 µg/mL (≈ 10.2 µM) | 25 µg/mL (≈ 82.4 µM) | 3.1 µg/mL (≈ 10.2 µM) | 3.1 µg/mL (≈ 10.2 µM) | MIC (Staphylococcus 209 P; [3]): 100 µg/mL (≈ 330 µM); MIC (Streptococcus; [3]): 100 µg/mL (≈ 330 µM); MIC (Esch. Coli 95; [3]): 6.2 µg/mL (≈ 20.4 µM); MIC (Pr. vulgaris; [2]): 3.1 µg/mL (≈ 10.2 µM); MIC (Pr. mirabilis; [9]): 12.5 µg/mL (≈ 41.2 µM); MIC (Pr. morganii; [3]): 6.2 µg/mL (≈ 20.4 µM); activity against Gram-negative microorganisms [1]: particularly active against Gram-negative microorganisms
3 | CCn1cc(C(=O)O)c(=O)c2cnc(N3CCN(Cc4ccccc4)CC3)nc21 [Example VII, 2-(4'-Benzyl-piperazino)-5-oxo-8-ethyl-5,8-dihydropyrido(2,3-d)pyrimidine-6-carboxylic acid] | 0.8 µg/mL (≈ 2.03 µM) | 0.8 µg/mL (≈ 2.03 µM) | 0.4 µg/mL (≈ 1.02 µM) | 0.8 µg/mL (≈ 2.03 µM) | 3.1 µg/mL (≈ 7.88 µM) | > 100 µg/mL | 100 µg/mL (≈ 254 µM) | > 100 µg/mL | 100 µg/mL (≈ 254 µM) | > 100 µg/mL | 1.6 µg/mL (≈ 4.07 µM) | 0.4 µg/mL (≈ 1.02 µM) | 1.6 µg/mL (≈ 4.07 µM) | 1.6 µg/mL (≈ 4.07 µM) | 12.5 µg/mL (≈ 31.8 µM) | 1.6 µg/mL (≈ 4.07 µM) | 12.5 µg/mL (≈ 31.8 µM) | 50 µg/mL (≈ 127 µM) | 6.2 µg/mL (≈ 15.8 µM) | 3.1 µg/mL (≈ 7.88 µM) | MIC (Staphylococcus 209 P; [3]): 3.1 µg/mL (≈ 7.88 µM); MIC (Streptococcus; [3]): 3.1 µg/mL (≈ 7.88 µM); MIC (Esch. Coli 95; [9]): 12.5 µg/mL (≈ 31.8 µM); MIC (Pr. vulgaris; 18 h, pH 6.8, read-out: minimum inhibitory concentration (M.I.C.)): 12.5 µg/mL (≈ 31.8 µM); MIC (Pr. mirabilis; [3]): 100 µg/mL (≈ 254 µM); MIC (Pr. morganii; [9]): 12.5 µg/mL (≈ 31.8 µM); activity against Gram-negative microorganisms [1]: particularly active against Gram-negative microorganisms
4 | CCn1cc(C(=O)O)c(=O)c2cnc(N3CCN(CCO)CC3)nc21 [Example VI, 2-(4-β-Hydroxyethyl-piperazino)-5-oxo-8-ethyl-5,8-dihydropyrido(2,3-d)pyrimidine-6-carboxylic acid] | 3.1 µg/mL (≈ 8.92 µM) | 3.1 µg/mL (≈ 8.92 µM) | 1.6 µg/mL (≈ 4.61 µM) | 3.1 µg/mL (≈ 8.92 µM) | 50 µg/mL (≈ 144 µM) | > 100 µg/mL | 50 µg/mL (≈ 144 µM) | > 100 µg/mL | 50 µg/mL (≈ 144 µM) | > 100 µg/mL | 1.6 µg/mL (≈ 4.61 µM) | 0.4 µg/mL (≈ 1.15 µM) | 1.6 µg/mL (≈ 4.61 µM) | 12.5 µg/mL (≈ 36 µM) | 6.2 µg/mL (≈ 17.8 µM) | 1.6 µg/mL (≈ 4.61 µM) | 1.6 µg/mL (≈ 4.61 µM) | 6.2 µg/mL (≈ 17.8 µM) | 3.1 µg/mL (≈ 8.92 µM) | 1.6 µg/mL (≈ 4.61 µM) | MIC (Staphylococcus 209 P; [9]): 12.5 µg/mL (≈ 36 µM); MIC (Streptococcus; [9]): 12.5 µg/mL (≈ 36 µM); MIC (Esch. Coli 95; [3]): 3.1 µg/mL (≈ 8.92 µM); MIC (Pr. vulgaris; [2]): 50 µg/mL (≈ 144 µM); MIC (Pr. mirabilis; [9]): 12.5 µg/mL (≈ 36 µM); MIC (Pr. morganii; [3]): 1.6 µg/mL (≈ 4.61 µM); activity against Gram-negative microorganisms [1]: particularly active against Gram-negative microorganisms
